Key:
[1] = target: T1, CDK2/Cyclin E1 (Homo sapiens, UniProt P24941); experiment: Caliper LabChip EZ Reader mobility shift assay; format: biochemical; settings: 2.5 nM CDK2/Cyclin E1(14-475), 100 μM ATP, 30 min preincubation; read-out: Caliper Assay (CDK2/CCNE1): IC50
Method: Inhibition of CDK2/Cyclin E1 activity in the presence of compounds of the present disclosure was evaluated using a Caliper LabChip® EZ Reader mobility shift assay. In the assay, activated CDK2/Cyclin E1 catalyzes the phosphorylation of a fluorescently tagged peptide 5-FAM-QSPKKG-CONH2 (PerkinElmer, FL Peptide 18) which induces a difference in capillary electrophoresis mobility. The peptide substrate and product were measured, and the conversion ratio was used to determine the inhibition (as % activity and IC50 values) of CDK2/Cyclin E1. Reactions contained 50 mM HEPES pH 7.5, 10 mM MgCl2, 1 mM EDTA, 2 mM DTT, 0.01% Brij35, 0.5 mg/mL BSA, 0.1% DMSO, 2.5 nM CDK2/Cyclin E1(14-475), 100 μM ATP, and 1.5 μM fluorescent peptide substrate.
Dose titrations of inhibitors in 100% DMSO were combined with 3.25 nM CDK2/Cyclin E1(14-475) and 130 μM of ATP in reaction buffer. The mixtures were incubated for 30 minutes before the addition of fluorescent peptide substrate to initiate the kinase reaction. The final conditions were 2.5 nM CDK2/Cyclin E1(14-475), 100 μM ATP, and 1.5 μM fluorescent peptide. The reactions were stopped after 100 minutes with the addition of EDTA (6 mM final EDTA concentration). The stopped reactions were analyzed on a Caliper LabChip® EZ Reader 11. The conversion ratios were normalized to yield % activity, plotted against compound concentration, and fit to a four-parameter equation to determine the IC50 for each compound.

[2] = tested on: Kuramochi cells RB-WT; experiment: IncuCyte Kuramochi cell proliferation assay, RB-WT; format: cell-based; settings: 72 hours, cell count
In short: (§1)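 GI50 was derived by curve-fitting DMSO-normalized fold change in nuclear count between 0 and 72 h. Counts came from images of Kuramochi cells carrying mApple-H2B. Compounds were dosed over 10 points at 1/2-log spacing from a 20 µM top concentration.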

[3] = target: T1, CDK2/Cyclin E1; experiment: ADP-Glo Luminescent Kinase Assay (CDK2/E1-37C); format: biochemical; settings: 0.18 nM CDK2/Cyclin E1, 100 μM ATP, Histone H1, 37° C.; read-out: ADPGLO (CDK2/E1-37C): IC50
In short: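 IC50 fitted by four-parameter equation from ADP-Glo luminescence converted to % activity. Compounds were preincubated 60 min at 37 °C with enzyme, then kinase reaction ran 90 min at 37 °C with 0.18 nM enzyme, 100 μM ATP, Histone H1 ([…]), pH 7.5 HEPES, Mg2+, DTT.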

[4] = tested on: Kuramochi cells RB-KO; experiment: IncuCyte Kuramochi cell proliferation assay, RB-KO; format: cell-based; settings: 72 hours, cell count, batch mean
In short: as §1

## O=C(c1cncs1)N1C[C@@H](COCc2cccc(-c3ccc(C4(C(F)(F)F)CC4)cc3)n2)C2(CN(CC3CCCO3)C2)C1 (stereo partly drawn) [Compound I-7, ((8S)-2-((tetrahydrofuran-2-yl)methyl)-8-(((6-(4-(1-(trifluoromethyl)cyclopropyl)phenyl)pyridin-2-yl)methoxy)methyl)-2,6-diazaspiro[3.4]octan-6-yl)(thiazol-5-yl)methanone]
[1]
  IC50: > 10 µM
[2]
  IC50: > 10 µM

## O=C(c1cncs1)N1C[C@@H](COCc2cccc(-c3ccc(C4CC4)cc3)n2)C2(CN(CC3CCCO3)C2)C1 (stereo partly drawn) [Compound I-8, ((8S)-8-(((6-(4-cyclopropylphenyl)pyridin-2-yl)methoxy)methyl)-2-((tetrahydrofuran-2-yl)methyl)-2,6-diazaspiro[3.4]octan-6-yl)(thiazol-5-yl)methanone]
[1]
  IC50: > 10 µM
[2]
  IC50: > 10 µM

## CC1(C)C[C@@H]1C(=O)N1CC2(CN(CC3CCCO3)C[C@H]2CNC(=O)c2cccc(-c3ccc(C(F)(F)F)cc3)n2)C1 (stereo partly drawn) [Compound I-9, N-(((8R)-2-((S)-2,2-dimethylcyclopropane-1-carbonyl)-6-((tetrahydrofuran-2-yl)methyl)-2,6-diazaspiro[3.4]octan-8-yl)methyl)-6-(4-(trifluoromethyl)phenyl)picolinamide]
[1]
  IC50: > 10 µM
[2]
  IC50: > 10 µM

## COc1ccccc1-c1cccc(C(=O)NC[C@@H]2CN(CC3CCCO3)CC23CN(C(=O)[C@H]2CC2(C)C)C3)n1 (stereo partly drawn) [Compound I-10, N-(((8R)-2-((S)-2,2-dimethylcyclopropane-1-carbonyl)-6-((tetrahydrofuran-2-yl)methyl)-2,6-diazaspiro[3.4]octan-8-yl)methyl)-6-(2-methoxyphenyl)picolinamide]
[1]
  IC50: 1 to 10 µM
[2]
  IC50: > 10 µM

## O=C(c1cncs1)N1C[C@@H](COCc2cccc(-c3ccc(C(F)(F)F)cc3)n2)C2(CN(CC3CCCO3)C2)C1 (stereo partly drawn) [Compound I-11, ((8S)-2-((Tetrahydrofuran-2-yl)methyl)-8-(((6-(4-(trifluoromethyl)phenyl)pyridin-2-yl)methoxy)methyl)-2,6-diazaspiro[3.4]octan-6-yl)(thiazol-5-yl)methanone]
[1]
  IC50: > 10 µM
[2]
  IC50: > 10 µM

## O=C([C@H]1CC1(F)F)N1CC2(CN(Cc3cncs3)C[C@H]2COCc2cccc(-c3ccc(C(F)(F)F)cc3)n2)C1 [Compound I-12, ((R)-2,2-difluorocyclopropyl)((S)-6-(thiazol-5-ylmethyl)-8-(((6-(4-(trifluoromethyl)phenyl)pyridin-2-yl)methoxy)methyl)-2,6-diazaspiro[3.4]octan-2-yl)methanone]
[1]
  IC50: > 10 µM
[2]
  IC50: > 10 µM

## CC1(C)C[C@@H]1C(=O)N1CC2(C1)CN(c1cc(F)c(F)c3ncsc13)C[C@H]2COCc1cccc(C2CCC(F)(F)CC2)c1C(=O)O [I′-72, 2-((((S)-6-(4,5-difluorobenzo[d]thiazol-7-yl)-2-((S)-2,2-dimethylcyclopropane-1-carbonyl)-2,6-diazaspiro[3.4]octan-8-yl)methoxy)methyl)-6-(4,4-difluorocyclohexyl)benzoic acid]
[3]
  IC50: ≤ 0.5 µM
[2]
  IC50: ≤ 0.5 µM
[4]
  IC50: > 10 µM

## O=C(O)c1c(COCC2CN(C(=O)c3cnn(Cc4ccc(F)cc4)c3)CC23CN(C(=O)C2(C(F)(F)F)CC2)C3)cccc1-c1ccc(Cl)cc1F (stereo not drawn) [I′-73]
[3]
  IC50: ≤ 0.5 µM
[2]
  IC50: ≤ 0.5 µM
[4]
  IC50: > 10 µM

## O=C(O)c1ccccc1Cn1cc(C(=O)N2CC(COCc3cccc(C4CCC(C(F)(F)F)CC4)c3OC(F)F)C3(C2)CN(C(=O)C2(C(F)(F)F)CC2)C3)cn1 (stereo not drawn) [I′-74, 2-((4-(8-(((2-(difluoromethoxy)-3-(4-(trifluoromethyl)cyclohexyl)benzyl)oxy)methyl)-2-(1-(trifluoromethyl)cyclopropane-1-carbonyl)-2,6-diazaspiro[3.4]octane-6-carbonyl)-1H-pyrazol-1-yl)methyl)benzoic acid]
[3]
  IC50: ≤ 0.5 µM
[2]
  IC50: > 10 µM
[4]
  IC50: > 10 µM

## CC1(C)C[C@@H]1C(=O)N1CC2(CN(C(=O)c3cnn(Cc4ccc(F)cc4)c3)CC2COCc2cccc(C3CCC(F)(F)CC3)c2C#N)C1 (stereo partly drawn) [I′-75, 2-(4,4-difluorocyclohexyl)-6-(((2-((S)-2,2-dimethylcyclopropane-1-carbonyl)-6-(1-(4-fluorobenzyl)-1H-pyrazole-4-carbonyl)-2,6-diazaspiro[3.4]octan-8-yl)methoxy)methyl)benzonitrile]
[3]
  IC50: ≤ 0.5 µM
[2]
  IC50: > 10 µM
[4]
  IC50: > 10 µM

## CC(C)(C(=O)N1CC2(CN(C(=O)c3cnn(Cc4ccc(F)cc4)c3)CC2COCc2cccc(C3CCC(F)(F)CC3)c2C(=O)O)C1)C(F)(F)F (stereo not drawn) [I′-76]
[3]
  IC50: ≤ 0.5 µM
[2]
  IC50: 0.5 to 5 µM
[4]
  IC50: 5 to 10 µM

## Cc1cc(F)ccc1-c1cccc(COCC2CN(C(=O)c3cnn(Cc4ccc(F)cc4)c3)CC23CN(C(=O)C2(C(F)(F)F)CC2)C3)c1C(=O)O (stereo not drawn) [I′-77, 4′-fluoro-3-(((6-(1-(4-fluorobenzyl)-1H-pyrazole-4-carbonyl)-2-(1-(trifluoromethyl)cyclopropane-1-carbonyl)-2,6-diazaspiro[3.4]octan-8-yl)methoxy)methyl)-2′-methyl-[1,1′-biphenyl]-2-carboxylic acid]
[3]
  IC50: ≤ 0.5 µM
[2]
  IC50: 5 to 10 µM
[4]
  IC50: > 10 µM

## CC1(C)C[C@@H]1C(=O)N1CC2(CN(C(=O)c3cnn(Cc4ccc(F)cc4)c3)CC2C#CCc2cccc(C3CCC(F)(F)CC3)c2C(=O)O)C1 (stereo partly drawn) [I′-78]
[3]
  IC50: > 10 µM
[2]
  IC50: > 10 µM
[4]
  IC50: > 10 µM

## CC(C)(C)OC(=O)c1c(COCC2CN(C(=O)c3cnn(Cc4ccc(F)cc4)c3)CC23CN(C(=O)[C@H]2CC2(C)C)C3)cccc1C1CCC(F)(F)CC1 (stereo partly drawn) [I′-79, tert-butyl 2-(4,4-difluorocyclohexyl)-6-(((2-((S)-2,2-dimethylcyclopropane-1-carbonyl)-6-(1-(4-fluorobenzyl)-1H-pyrazole-4-carbonyl)-2,6-diazaspiro[3.4]octan-8-yl)methoxy)methyl)benzoate]
[3]
  IC50: ≤ 0.5 µM
[2]
  IC50: > 10 µM
[4]
  IC50: > 10 µM

## CC1(C)C[C@@H]1C(=O)N1CC2(CN(C(=O)c3cnn(Cc4ccc(F)cc4)c3)CC2COCc2cccc(C3CCC(F)(F)CC3)c2C(=O)O)C1 (stereo partly drawn) [I′-80, 2-(4,4-difluorocyclohexyl)-6-(((2-((S)-2,2-dimethylcyclopropane-1-carbonyl)-6-(1-(4-fluorobenzyl)-1H-pyrazole-4-carbonyl)-2,6-diazaspiro[3.4]octan-8-yl)methoxy)methyl)benzoic acid]
[3]
  IC50: ≤ 0.5 µM
[2]
  IC50: 0.5 to 5 µM
[4]
  IC50: > 10 µM

## CC1(C)C[C@@H]1C(=O)N1CC2(CN(C(=O)c3cnn(Cc4ccc(F)cc4)c3)CC2COCc2cccc(Br)c2C(=O)O)C1 (stereo partly drawn) [I′-81]
[3]
  IC50: 0.5 to 5 µM
[2]
  IC50: > 10 µM
[4]
  IC50: > 10 µM

## O=C(O)c1c(O)cc(COCC2CN(C(=O)c3cnn(Cc4ccc(C(F)(F)F)cc4)c3)CC23CN(C(=O)C2(C(F)(F)F)CC2)C3)cc1C1CCC(F)(F)CC1 (stereo not drawn) [I′-82]
[3]
  IC50: 5 to 10 µM
[2]
  IC50: > 10 µM
[4]
  IC50: > 10 µM

## CC(C)(C)OC(=O)c1c(COCC2CN(C(=O)c3cnn(Cc4ccc(F)cc4C(F)(F)F)c3)CC23CN(C(=O)C2(C(F)(F)F)CC2)C3)cccc1C1CCC(C(F)(F)F)CC1 (stereo not drawn) [I′-83]
[3]
  IC50: 0.5 to 5 µM
[2]
  IC50: > 10 µM
[4]
  IC50: > 10 µM

## CC1(C)C[C@@H]1C(=O)N1CC2(CN(C(=O)c3cnn(Cc4ccc(F)cc4)c3)CC2COCc2cccc(C3CCC(C(F)(F)F)CC3)c2C(N)=O)C1 (stereo partly drawn) [I′-84, 2-(((2-((S)-2,2-dimethylcyclopropane-1-carbonyl)-6-(1-(4-fluorobenzyl)-1H-pyrazole-4-carbonyl)-2,6-diazaspiro[3.4]octan-8-yl)methoxy)methyl)-6-(4-(trifluoromethyl)cyclohexyl)benzamide]
[3]
  IC50: ≤ 0.5 µM
[2]
  IC50: > 10 µM
[4]
  IC50: > 10 µM

## CC1(C)C[C@@H]1C(=O)N1CC2(CN(C(=O)c3cnn(Cc4ccc(F)cc4)c3)CC2COCc2cccc(C3CCC(C(F)(F)F)CC3)c2C(=O)O)C1 (stereo partly drawn) [I′-85, 2-(((2-((S)-2,2-dimethylcyclopropane-1-carbonyl)-6-(1-(4-fluorobenzyl)-1H-pyrazole-4-carbonyl)-2,6-diazaspiro[3.4]octan-8-yl)methoxy)methyl)-6-(4-(trifluoromethyl)cyclohexyl)benzoic acid]
[3]
  IC50: ≤ 0.5 µM
[2]
  IC50: ≤ 0.5 µM
[4]
  IC50: 5 to 10 µM

## N#Cc1c(COCC2CN(C(=O)c3cnn(Cc4ccc(C(F)(F)F)cc4)c3)CC23CN(C(=O)C2(C(F)(F)F)CC2)C3)cccc1C1CCC(C(F)(F)F)CC1 (stereo not drawn) [I′-86]
[3]
  IC50: 0.5 to 5 µM
[2]
  IC50: > 10 µM
[4]
  IC50: > 10 µM

From patent publication US20260034123A1 (Cedilla Therapeutics, Inc., priority 2022, published 2026)
